In DBAASP:
≈ marks a conversion by molar mass, not a printed value. Where “and” joins values, the source holds several entries; their conditions need not be identical. Equal values may be shown once. One block for each compound: values may come before it.

Key:
Test in all cases: ≥ marks a high value that may be exact or a test limit, other limits are often not marked, values filed in µg/mL are converted to µM
[1] = tested on: Acinetobacter baumannii
[2] = tested on: Enterococcus faecalis ATCC 29212
[3] = tested on: Escherichia coli ATCC 25922
[4] = tested on: Pseudomonas aeruginosa ATCC 27853
[5] = tested on: Staphylococcus aureus ATCC 29213
[6] = tested on: Bacillus subtilis ATCC 23857
[7] = tested on: Candida albicans ATCC 10231
[8] = tested on: Klebsiella pneumoniae ATCC 13883
[9] = tested on: Pseudomonas aeruginosa PAO1
[10] = tested on: Staphylococcus aureus USA 300
[11] = tested on: Acinetobacter baumannii ATCC 19606
[12] = tested on: Klebsiella pneumoniae ATCC 700603
[13] = tested on: Staphylococcus aureus ATCC 25923
[14] = tested on: Staphylococcus epidermidis ATCC 12228
[15] = tested on: Pseudomonas aeruginosa ATCC 9027
[16] = tested on: Escherichia coli UB1005
[17] = tested on: Salmonella enterica subsp. enterica serovar Typhimurium C77-31
[18] = tested on: Klebsiella pneumoniae
[19] = tested on: Salmonella enterica subsp. enterica serovar Typhimurium ATCC 14028
[20] = tested on: Escherichia coli
[21] = tested on: Staphylococcus aureus
[22] = tested on: Staphylococcus aureus ATCC 33591

MIC [1]: 22.8 µM (≈ 32 µg/mL)
MIC [2]: > 22.8 µM
MIC [3]: 17.1 µM (≈ 24 µg/mL)
MIC [4]: > 22.8 µM
MIC [5]: > 22.8 µM
Compound: CC(C)C[C@H](NC(=O)[C@H](CC(C)C)NC(=O)[C@H](CCCN=C(N)N)NC(=O)[C@H](CCCCN)NC(=O)[C@H](CCCN=C(N)N)NC(=O)[C@H](CC(C)C)NC(=O)[C@H](CCCCN)NC(=O)[C@H](CCCN=C(N)N)NC(=O)[C@H](CC(C)C)NC(=O)[C@@H](N)CS)C(=O)N[C@@H](CS)C(=O)O [CLRKLRKRLLC]

MIC [6]: ≥ 102 µM
MIC [7]: > 406 µM
Compound: NC(=O)[C@H](CCCN=C(N)N)NC(=O)[C@H](CCCN=C(N)N)NC(=O)[C@H](Cc1ccccc1)NC(=O)[C@H](Cc1ccccc1)NC(=O)[C@H](CCCN=C(N)N)NC(=O)[C@H](CCCN=C(N)N)NC(=O)[C@H](Cc1ccccc1)NC(=O)[C@@H](N)Cc1ccccc1 [FFRRFFRR]

Compound: CC(C)C[C@H](NC(=O)[C@H](CC(C)C)NC(=O)[C@H](CCCCN)NC(=O)[C@H](CC(C)C)NC(=O)CNC(=O)[C@H](CC(C)C)NC(=O)[C@H](CO)NC(=O)[C@H](CC(C)C)NC(=O)[C@H](CC(C)C)NC(=O)[C@H](CO)NC(=O)[C@H](CC(C)C)NC(=O)[C@H](CC(C)C)NC(=O)CN)C(N)=O [GLLSLLSLGLKLL]
MIC [3]: > 25 µM
MIC [8]: 25 µM (≈ 33.5 µg/mL)
MIC [9]: > 25 µM
MIC [10]: 0.8 µM (≈ 1.07 µg/mL)

MIC [3]: 2.16 µM (≈ 2.8 µg/mL)
MIC [8]: 17.7 µM (≈ 22.9 µg/mL)
MIC [9]: > 25 µM
MIC [10]: 1.56 µM (≈ 2.02 µg/mL)
Compound: CC(C)C[C@H](NC(=O)CN)C(=O)N[C@@H](CC(C)C)C(=O)N[C@@H](CO)C(=O)N[C@@H](CC(C)C)C(=O)N[C@@H](CC(C)C)C(=O)N[C@@H](CO)C(=O)N[C@@H](CC(C)C)C(=O)N[C@@H](CC(C)C)C(=O)NCC(=O)N[C@@H](CCCCN)C(=O)N[C@@H](CC(C)C)C(=O)N[C@@H](C)C(N)=O [GLLSLLSLLGKLA]

MIC [11]: 64 µM (≈ 87.5 µg/mL)
MIC [6]: 4 µM (≈ 5.47 µg/mL)
MIC [2]: 64 µM (≈ 87.5 µg/mL)
MIC [3]: 16 µM (≈ 21.9 µg/mL)
MIC [12]: 32 µM (≈ 43.8 µg/mL)
MIC [4]: 8 µM (≈ 10.9 µg/mL)
MIC [13]: 16 µM (≈ 21.9 µg/mL)
MIC [14]: 4 µM (≈ 5.47 µg/mL)
Compound: CC[C@H](C)[C@H](NC(=O)[C@H](CCCN=C(N)N)NC(=O)[C@H](CCCCN)NC(=O)[C@H](Cc1ccccc1)NC(=O)[C@H](Cc1c[nH]c2ccccc12)NC(=O)CN)C(=O)N[C@@H](CCCCN)C(=O)N[C@H](C(=O)N[C@@H](Cc1ccccc1)C(=O)N[C@@H](Cc1c[nH]c2ccccc12)C(N)=O)[C@@H](C)O [GWFKRIKTFW]

MIC [1]: ≥ 64 µM
MIC [3]: > 64 µM
MIC [12]: > 64 µM
MIC [15]: > 64 µM
MIC [13]: > 64 µM
Compound: CC[C@H](C)[C@H](N)C(=O)N[C@H](C(=O)N[C@H](C(=O)N[C@@H](CCCCN)C(=O)N[C@@H](CO)C(=O)N[C@@H](CC(C)C)C(=O)NCC(=O)N[C@@H](CCCCN)C(=O)N[C@@H](Cc1ccccc1)C(=O)N[C@@H](CC(C)C)C(=O)N[C@@H](CCCCN)C(=O)N[C@@H](CC(N)=O)C(=O)N[C@H](C(=O)NCC(=O)NCC(=O)N[C@@H](Cc1ccccc1)C(=O)N[C@@H](C)C(=O)NCC(=O)O)C(C)C)[C@@H](C)CC)C(C)C [IVIKSLGKFLKNVGGFAG]

MIC [11]: 8 µM (≈ 12.9 µg/mL)
MIC [6]: 4 µM (≈ 6.47 µg/mL)
MIC [2]: 16 µM (≈ 25.9 µg/mL)
MIC [3]: 16 µM (≈ 25.9 µg/mL)
MIC [12]: 16 µM (≈ 25.9 µg/mL)
MIC [4]: 8 µM (≈ 12.9 µg/mL)
MIC [13]: 8 µM (≈ 12.9 µg/mL)
MIC [14]: 8 µM (≈ 12.9 µg/mL)
Compound: NCCCC[C@H](NC(=O)[C@H](CCCCN)NC(=O)[C@H](Cc1c[nH]c2ccccc12)NC(=O)[C@H](CCCN=C(N)N)NC(=O)[C@H](CCCCN)NC(=O)[C@H](Cc1c[nH]c2ccccc12)NC(=O)[C@H](Cc1c[nH]c2ccccc12)NC(=O)[C@@H](N)CCCCN)C(=O)N[C@@H](Cc1c[nH]c2ccccc12)C(=O)N[C@@H](Cc1c[nH]c2ccccc12)C(N)=O [KWWKRWKKWW]

MIC [6]: ≥ 128 µM
MIC [3]: > 128 µM
MIC [12]: > 128 µM
MIC [15]: > 128 µM
MIC [13]: > 128 µM
Compound: CC(C)C[C@H](NC(=O)[C@H](C)NC(=O)[C@H](CCCCN)NC(=O)[C@H](CC(C)C)NC(=O)[C@H](CC(N)=O)NC(=O)[C@@H](N)CC(C)C)C(=O)N[C@@H](CC(C)C)C(=O)N[C@@H](C)C(=O)N[C@H](C(=O)N[C@@H](C)C(=O)N[C@@H](CCCCN)C(N)=O)C(C)C [LNLKALLAVAK]

MIC [3]: 4 µM (≈ 6.26 µg/mL)
MIC [16]: 4 µM (≈ 6.26 µg/mL)
MIC [17]: 16 µM (≈ 25 µg/mL)
MIC [13]: 32 µM (≈ 50.1 µg/mL)
MIC [5]: 32 µM (≈ 50.1 µg/mL)
MIC [14]: 64 µM (≈ 100 µg/mL)
Compound: CC(C)C[C@H](NC(=O)[C@H](CCCN=C(N)N)NC(=O)[C@H](CC(C)C)NC(=O)[C@H](CCCN=C(N)N)NC(=O)[C@@H](NC(=O)[C@H](CCCCN)NC(=O)[C@H](CC(C)C)NC(=O)[C@H](CCCN=C(N)N)NC(=O)[C@H](CC(C)C)NC(=O)[C@H](CCCN=C(N)N)NC(=O)[C@@H](N)CC(C)C)[C@@H](C)O)C(=O)N[C@@H](CCCCN)C(N)=O [LRLRLKTRLRLK]

MIC [2]: > 128 µM
MIC [3]: 128 µM (≈ 188 µg/mL)
MIC [4]: > 128 µM
MIC [17]: ≥ 128 µM
MIC [5]: 128 µM (≈ 188 µg/mL)
MIC [14]: > 128 µM
Compound: CC(C)C[C@H](NC(=O)[C@H](CCCN=C(N)N)NC(=O)[C@H](CC(N)=O)NC(=O)[C@H](C)NC(=O)[C@H](CCCN=C(N)N)NC(=O)[C@H](CC(C)C)NC(=O)[C@H](Cc1c[nH]c2ccccc12)NC(=O)[C@H](CC(C)C)NC(=O)[C@H](CCCN=C(N)N)NC(=O)[C@H](CCCN=C(N)N)NC(=O)[C@@H](N)CC(C)C)C(N)=O [LRRLWLRANRL]

MIC [11]: 1.7 µM and 1.5 µM
MIC [1]: 2.6 µM (≈ 5.12 µg/mL)
MIC [8]: 5.4 µM and 8.6 µM
MIC [18]: 1.2 µM (≈ 2.36 µg/mL)
MIC [19]: 1.5 µM and 2.2 µM
MIC [13]: > 30 µM
Compound: CC(C)C[C@H](NC(=O)[C@H](CCCN=C(N)N)NC(=O)[C@H](CCCN=C(N)N)NC(=O)[C@H](C)NC(=O)[C@H](Cc1c[nH]c2ccccc12)NC(=O)CNC(=O)[C@H](CCCN=C(N)N)NC(=O)[C@@H](N)CCCN=C(N)N)C(=O)N[C@@H](Cc1ccccc1)C(=O)N[C@@H](Cc1ccccc1)C(=O)N[C@@H](C)C(=O)N[C@@H](Cc1ccc(O)cc1)C(=O)NCC(=O)N[C@@H](CCCN=C(N)N)C(=O)N[C@@H](CCCN=C(N)N)C(N)=O [RRGWARRLFFAYGRR]

MIC [3]: 16 µM (≈ 27.6 µg/mL)
MIC [16]: 16 µM (≈ 27.6 µg/mL)
MIC [17]: ≥ 64 µM
MIC [13]: 32 µM (≈ 55.2 µg/mL)
MIC [5]: 64 µM (≈ 110 µg/mL)
MIC [14]: 16 µM (≈ 27.6 µg/mL)
Compound: CC(C)C[C@H](NC(=O)[C@H](CCCN=C(N)N)NC(=O)[C@H](CCCCN)NC(=O)[C@H](CCCN=C(N)N)NC(=O)[C@@H](NC(=O)[C@H](Cc1c[nH]c2ccccc12)NC(=O)[C@H](CCCCN)NC(=O)[C@H](CCCN=C(N)N)NC(=O)[C@H](CC(C)C)NC(=O)[C@H](Cc1c[nH]c2ccccc12)NC(=O)[C@@H](N)CCCN=C(N)N)[C@@H](C)O)C(=O)N[C@@H](CCCCN)C(N)=O [RWLRKWTRKRLK]

MIC [11]: 2 µM (≈ 5.71 µg/mL)
MIC [1]: 2 µM (≈ 5.71 µg/mL)
MIC [3]: 1 µM (≈ 2.86 µg/mL)
MIC [20]: 2 µM (≈ 5.71 µg/mL)
MIC [5]: 2 µM (≈ 5.71 µg/mL)
MIC [21]: 32 µM (≈ 91.4 µg/mL)
Compound: CC(C)C[C@H](NC(=O)[C@@H]1CCCN1C(=O)[C@H](CCCN=C(N)N)NC(=O)[C@H](Cc1ccc(O)cc1)NC(=O)[C@@H](NC(=O)[C@@H]1CCCN1C(=O)[C@H](CCCN=C(N)N)NC(=O)[C@H](Cc1ccc(O)cc1)NC(=O)[C@@H]1CCCN1C(=O)[C@@H]1CCCN1C(=O)[C@@H]1CCCN1C(=O)[C@H](CCCN=C(N)N)NC(=O)[C@H](Cc1ccc(O)cc1)NC(=O)[C@@H](NC(=O)[C@H](CC(N)=O)NC(=O)[C@@H](N)CO)C(C)C)C(C)C)C(=O)N[C@@H](CCCN=C(N)N)C(=O)N[C@@H](CCCN=C(N)N)C(=O)N1CCC[C@H]1C(=O)NCC(=O)N[C@@H](Cc1ccc(O)cc1)C(=O)N[C@@H](CCCN=C(N)N)C(=O)N1CCC[C@H]1C(N)=O [SNVYRPPPYRPVYRPLRRPGYRP]

Compound: C[C@@H](O)[C@H](NC(=O)[C@H](CCCN=C(N)N)NC(=O)[C@H](CCCN=C(N)N)NC(=O)[C@H](CCCN=C(N)N)NC(=O)[C@@H]1CCCN1C(=O)[C@@H](N)CO)C(=O)N1CCC[C@H]1C(=O)N[C@@H](CO)C(=O)N1CCC[C@H]1C(=O)N[C@@H](CCCN=C(N)N)C(=O)N[C@@H](CCCN=C(N)N)C(=O)N[C@@H](CCCN=C(N)N)C(=O)N[C@@H](CCCN=C(N)N)C(=O)N[C@@H](CO)C(=O)N[C@@H](CCC(N)=O)C(=O)N[C@@H](CO)C(=O)N1CCC[C@H]1C(=O)N[C@@H](CCCN=C(N)N)C(=O)N[C@@H](CCCN=C(N)N)C(=O)N[C@@H](CCCN=C(N)N)C(N)=O [SPRRRTPSPRRRRSQSPRRR]
MIC [3]: 25 µM (≈ 63.6 µg/mL)
MIC [4]: 100 µM (≈ 254 µg/mL)
MIC [13]: > 100 µM
MIC [22]: ≥ 100 µM
